# Results as given in patent US9796711B2, “Substituted pyrazolo[3,4-b]pyridin-6-carboxylic acids and method of use” (AbbVie S.àr.l., priority 2015, dated 2017).
# Key:
# CFTR ΔF508 [1] = molecular target: T1, CFTR ΔF508 (Homo sapiens, UniProt P13569, DEL508-508); test: Acute TECC assay on primary bronchial epithelial cells, with and without co-corrector; format: cell-based; conditions: normalized to DMSO and positive control; for % Activity at 10 μM (Ieq*): bronchial epithelial cells from CF patients homozygous for CFTR ΔF508, 10 μM test compound for 24 h, without co-corrector, Ieq based on the maximum current; for % Activity at 3 μM with co-corrector (Ieq): bronchial epithelial cells from CF patients homozygous for CFTR ΔF508, 3 μM test compound for 24 h
# T1 construct: bronchial epithelial cells isolated from CF patients homozygous for the CFTR ΔF508 mutation; McGill University; Asterand; University of North Carolina hAEC-CF; host or cells: primary human bronchial epithelial cells from CF patients homozygous for ΔF508
# T1 sequence (P13569 with tags, fused parts or gaps DEL508-508): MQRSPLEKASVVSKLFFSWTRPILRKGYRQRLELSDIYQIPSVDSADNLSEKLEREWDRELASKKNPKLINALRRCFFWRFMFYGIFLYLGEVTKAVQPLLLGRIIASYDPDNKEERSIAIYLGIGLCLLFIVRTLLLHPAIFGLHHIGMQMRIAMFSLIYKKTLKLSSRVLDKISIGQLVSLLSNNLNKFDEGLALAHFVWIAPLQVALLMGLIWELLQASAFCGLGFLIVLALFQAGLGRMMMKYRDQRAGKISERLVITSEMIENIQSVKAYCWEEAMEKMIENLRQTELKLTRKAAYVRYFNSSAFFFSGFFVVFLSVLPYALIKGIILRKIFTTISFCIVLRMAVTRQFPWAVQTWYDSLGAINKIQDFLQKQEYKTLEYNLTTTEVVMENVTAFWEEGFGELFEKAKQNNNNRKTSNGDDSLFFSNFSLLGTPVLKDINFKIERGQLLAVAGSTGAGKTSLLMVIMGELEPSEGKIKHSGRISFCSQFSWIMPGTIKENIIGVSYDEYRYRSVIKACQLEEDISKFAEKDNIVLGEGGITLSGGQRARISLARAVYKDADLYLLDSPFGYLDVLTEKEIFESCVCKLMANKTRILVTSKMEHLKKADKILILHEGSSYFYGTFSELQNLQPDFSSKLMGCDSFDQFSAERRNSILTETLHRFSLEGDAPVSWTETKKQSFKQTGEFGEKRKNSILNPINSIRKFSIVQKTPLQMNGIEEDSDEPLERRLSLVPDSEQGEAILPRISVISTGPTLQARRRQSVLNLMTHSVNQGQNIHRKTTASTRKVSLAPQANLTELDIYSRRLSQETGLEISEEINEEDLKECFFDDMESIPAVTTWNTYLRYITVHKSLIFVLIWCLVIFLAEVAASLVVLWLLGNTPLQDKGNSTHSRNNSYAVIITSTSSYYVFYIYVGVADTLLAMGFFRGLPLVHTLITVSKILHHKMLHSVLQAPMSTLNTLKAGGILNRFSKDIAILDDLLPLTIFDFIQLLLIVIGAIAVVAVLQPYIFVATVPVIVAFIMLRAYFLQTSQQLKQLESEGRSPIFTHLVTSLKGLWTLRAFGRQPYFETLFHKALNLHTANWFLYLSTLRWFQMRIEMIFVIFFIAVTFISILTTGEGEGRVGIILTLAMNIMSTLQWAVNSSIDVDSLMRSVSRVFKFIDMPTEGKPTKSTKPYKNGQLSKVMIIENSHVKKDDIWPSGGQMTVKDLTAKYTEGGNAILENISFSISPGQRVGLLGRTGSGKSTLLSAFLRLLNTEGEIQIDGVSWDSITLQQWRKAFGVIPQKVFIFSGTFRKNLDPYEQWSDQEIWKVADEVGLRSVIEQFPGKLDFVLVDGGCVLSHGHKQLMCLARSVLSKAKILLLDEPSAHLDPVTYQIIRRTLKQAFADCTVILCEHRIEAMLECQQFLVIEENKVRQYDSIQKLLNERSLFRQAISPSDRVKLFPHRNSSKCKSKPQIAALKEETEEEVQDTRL
# Description: Primary Bronchial Epithelial Cells Protocol
# The TECC (Tranepithelial Clamp Circuit, EP-design) assay measures the functionality of the cystic fibrosis Transmembrane Conductance regulator (CFTR) by measuring the short circuit current (Isc) generated over the basolateral and apical membrane of lung epithelial cells. In TECC the transepithelial potential PD and transepithelial resistance (Rt)) are measured in an open circuit and transformed to Ieq using Ohm's law. 24 Wells can be measured simultaneously allowing a higher throughput compared to Ussing chambers.
# For this purpose, bronchial epithelial cells isolated from CF patients homozygous for the CFTR ΔF508 mutation (hAEC-CF, Epithelix, Geneva, Switzerland; McGill University, Montreal, Qc; Asterand, Detroit, Mich.; University of North Carolina, Chapel Hill, N.C.) are plated on type IV collagen-coated Transwell® supports (Costar). Human airway epithelia are generated by provision of an air-liquid interface for 21 days to form well-differentiated polarized cultures that resemble in vivo pseudo-stratified ciliated epithelium (Fulcher, M. L., Gabriel, S., Burns, K. A., Yankaskas, J. R., Randell, S. H., 2005. Well-differentiated human airway epithelial cell cultures. Methods Mol. Med. 107, 183-206). The differentiated cells are treated with test corrector compound(s) (corrector alone or in combination with co-corrector, 4-[(2R,4R)-4-({[1-(2,2-difluoro-1,3-benzodioxol-5-yl)cyclopropyl]carbonyl}amino)-7-methoxy-3,4-dihydro-2H-chromen-2-yl]benzoic acid (G924806/A-1618261) (“acute”) or test corrector compounds, co-corrector and potentiator, N-(3-carbamoyl-5,5,7,7-tetramethyl-4,7-dihydro-5H-thieno[2,3-c]pyran-2-yl)-1H-pyrazole-5-carboxamide GLPG1837, (“chronic”) for 24 hours basolaterally to allow sufficient expression of properly folded CFTR protein on the membrane. All compound plates contained negative controls (DMSO) and positive controls (0.15 μM, 4-[(2R,4R)-4-({[1-(2,2-difluoro-1,3-benzodioxol-5-yl)cyclopropyl]carbonyl}amino)-7-(difluoromethoxy)-3,4-dihydro-2H-chromen-2-yl]benzoic acid).
# For electrophysiological recording of the “acute” experiments, the human airway epithelia are mounted in the TECC heating plate and kept at 37° C. The epithelia are bathed in a NaCl-Ringer solution (120 mM NaCl, 25 mM NaHCO3, 1.2 mM CaCl2, 1.2 mM MgCl2, 0.8 mM KH2PO4, 0.8 mM K2HPO4, pH 7.4, 5 mM glucose) on both the basolateral and apical sides. Apical amiloride is used to inhibit the endogenous epithelial sodium channel (ENaC) currents while forskolin is applied on both apical and basolateral side to stimulate CFTR. CFTR activity is measured by addition of forskolin followed by addition of a potentiator, N-(3-carbamoyl-5,5,7,7-tetramethyl-4,7-dihydro-5H-thieno[2,3-c]pyran-2-yl)-1H-pyrazole-5-carboxamide, on both sides. Measurements are done during a 20 minute timeframe with recordings every 2 minutes. The increase in Ieq is used as a measure for the increased CFTR activity, EC50 values can be generated by measuring impact of different concentrations of compound on Ieq on primary cells, for this purpose each transwell is treated with a different compound concentration for 24 hours. Inhibitor-172, an inhibitor specific for CFTR, is used to test the specificity of the tested compounds. Raw data were normalized to percentage activity values using the equation: 100×(Sample−Negative control)/(Positive control−Negative Control).
# CFTR ΔF508 [2] = molecular target: T1, CFTR ΔF508; test: Chronic TECC assay on primary bronchial epithelial cells (corrector, co-corrector and potentiator); format: cell-based; conditions: chronic TECC, Ieq = calculations based on the maximum current, with co-corrector and potentiator, 24 hours; for EC50: read-out: EC50 (nM) (Ieq)
# How it was run: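 Differentiated airway epithelia from CFTR ΔF508-homozygous CF patients (21 days air-liquid interface) were treated basolaterally for 24 h with corrector plus co-corrector and potentiator; compounds were re-added before TECC recording at 37 °C in NaCl-Ringer, pH 7.4. Forskolin-stimulated Ieq increase after apical amiloride, normalized to DMSO and positive controls; EC50 from concentration series.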
SMILES,% Activity at 10 μM (Ieq*) (CFTR ΔF508 [1]),% Activity at 3 μM with co-corrector (Ieq) (CFTR ΔF508 [1]),% Activity at 1 μM (Ieq*) (CFTR ΔF508 [2]),EC50 (CFTR ΔF508 [2])
"CC(C)c1nn(-c2cccc(N3CCOCC3)c2)c2nc(C(=O)O)cc(-c3ccc(N(C)C)nc3)c12 [compound 89, 4-[6-(dimethylamino)pyridin-3-yl]-1-[3-(morpholin-4-yl)phenyl]-3-(propan-2-yl)-1H-pyrazolo[3,4-b]pyridine-6-carboxylic acid]",147.6%,–,–,–
"Cc1nn(-c2ccccc2)c2nc(C(=O)O)cc(N3CCCCC3)c12 [compound 123, 3-methyl-1-phenyl-4-(piperidin-1-yl)-1H-pyrazolo[3,4-b]pyridine-6-carboxylic acid]",100.6%,–,–,–
"CC(C)c1nn(-c2cccc(N3CCC3)c2)c2nc(C(=O)O)cc(-c3ccc(N4CCOCC4)cc3)c12 [compound 151, 1-[3-(azetidin-1-yl)phenyl]-4-[4-(morpholin-4-yl)phenyl]-3-(propan-2-yl)-1H-pyrazolo[3,4-b]pyridine-6-carboxylic acid]",100.6%,–,–,–
"CC(C)c1nn(C2CCCCC2)c2nc(C(=O)O)cc(-c3ccc(N(C)C4CCOCC4)nc3)c12 [compound 169, 1-cyclohexyl-4-{6-[methyl(oxan-4-yl)amino]pyridin-3-yl}-3-(propan-2-yl)-1H-pyrazolo[3,4-b]pyridine-6-carboxylic acid]",–,279.1%,–,–
"Cc1cccc(-n2nc(C(C)C)c3c(N4CCC(CO)CC4)cc(C(=O)O)nc32)c1 [compound 213, 4-[4-(hydroxymethyl)piperidin-1-yl]-1-(3-methylphenyl)-3-(propan-2-yl)-1H-pyrazolo[3,4-b]pyridine-6-carboxylic acid]",–,199.4%,390%,> 300 nM
"N#CC1CCN(c2ccc(-c3cc(C(=O)O)nc4c3c(C3CCC3)nn4C3CCCCC3)cn2)CC1 [compound 220, 4-[6-(4-cyanopiperidin-1-yl)pyridin-3-yl]-3-cyclobutyl-1-cyclohexyl-1H-pyrazolo[3,4-b]pyridine-6-carboxylic acid]",–,122.9%,720%,120 nM
"CC(C)c1nn(-c2cccc(N3CCCC3)c2)c2nc(C(=O)O)cc(-c3ccc(N4CCC(C#N)CC4)nc3)c12 [compound 222, 4-[6-(4-cyanopiperidin-1-yl)pyridin-3-yl]-3-(propan-2-yl)-1-[3-(pyrrolidin-1-yl)phenyl]-1H-pyrazolo[3,4-b]pyridine-6-carboxylic acid]",–,221.3%,–,–
